Numbered stars: 1 amine (or outer) side, 2 acyl side, 3 side chain; on linkers, the order of the positions; unused ones are H or OH. Bridge positions count the residues as written; N and C are the ends. Side chains are listed from the residue outwards. Peptide text beside a SMILES is read from it. * marks the point of attachment. C20 diacid = O=C(O)CCCCCCCCCCCCCCCCCCC(=O)*; γGlu = O=C(O)[C@H](CCC(=O)[*:2])N[*:1]
Columns and labels:
rat calcitonin receptor = target: T1, rat calcitonin receptor (Rattus norvegicus, UniProt P32214); assay: ASSAY (VIII) binding to the rat calcitonin receptor; settings: Table 7, read-out: rCTR bind IC50
T1 construct: expressed in transfected cells; host or cells: BHK tk'ts 13 (transient, FuGENE 6), membranes
T1 sequence (P32214 25-479 isoform P32214-2 limits assumed): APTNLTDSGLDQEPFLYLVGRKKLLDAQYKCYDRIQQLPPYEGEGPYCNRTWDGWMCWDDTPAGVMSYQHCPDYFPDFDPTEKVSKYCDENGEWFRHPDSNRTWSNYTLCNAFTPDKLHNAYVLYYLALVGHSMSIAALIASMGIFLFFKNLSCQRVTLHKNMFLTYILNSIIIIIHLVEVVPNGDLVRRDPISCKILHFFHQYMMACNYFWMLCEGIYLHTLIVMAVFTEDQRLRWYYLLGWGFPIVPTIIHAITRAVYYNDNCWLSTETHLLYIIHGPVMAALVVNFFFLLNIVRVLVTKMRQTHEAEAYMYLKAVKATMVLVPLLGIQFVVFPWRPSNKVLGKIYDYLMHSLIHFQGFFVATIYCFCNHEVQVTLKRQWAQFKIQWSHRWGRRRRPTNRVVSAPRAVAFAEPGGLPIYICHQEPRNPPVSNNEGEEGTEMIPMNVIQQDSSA
Summary of the method: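 Cell membranes for binding came from BHK tk′ts 13 cells harvested approximately 48 hours after transient transfection with the rat receptor.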

[1] = target: T2, human amylin receptor (membranes from Amylin 3(a)/CRE-luc cells) (Homo sapiens, UniProt O60896+P30988); assay: ASSAY (V) binding to the human amylin receptor (SPA, 125I-rat amylin);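 note: competition binding of cell membranes (35 ng/µL) mixed with SPA beads in 384-well plates at 40 µL total volume, read by scintillation counting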
T2 construct: expressed in transfected cells
T2 sequence (P30988 25-474): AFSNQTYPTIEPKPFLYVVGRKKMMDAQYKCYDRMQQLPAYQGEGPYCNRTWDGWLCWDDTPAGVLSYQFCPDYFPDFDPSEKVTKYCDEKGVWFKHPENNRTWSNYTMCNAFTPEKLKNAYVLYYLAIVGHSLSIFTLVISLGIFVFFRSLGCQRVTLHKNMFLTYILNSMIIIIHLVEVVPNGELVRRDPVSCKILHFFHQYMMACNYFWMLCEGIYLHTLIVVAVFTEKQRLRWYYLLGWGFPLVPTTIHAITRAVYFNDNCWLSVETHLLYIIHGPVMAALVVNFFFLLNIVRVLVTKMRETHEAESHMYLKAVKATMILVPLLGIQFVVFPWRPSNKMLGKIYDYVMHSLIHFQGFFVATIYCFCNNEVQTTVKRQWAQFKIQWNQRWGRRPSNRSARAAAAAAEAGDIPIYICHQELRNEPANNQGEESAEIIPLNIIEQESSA
T2 sequence (O60896 24-148 partner): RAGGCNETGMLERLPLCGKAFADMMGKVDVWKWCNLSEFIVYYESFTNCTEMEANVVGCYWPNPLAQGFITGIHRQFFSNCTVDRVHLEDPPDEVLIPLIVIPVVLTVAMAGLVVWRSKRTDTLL

[2] = target: T3, human amylin 3(a) receptor (human calcitonin receptor + RAMP-3) in BHK570 cells (Homo sapiens, UniProt O60896+P30988); assay: ASSAY (II)a functional assay, human amylin receptor (CRE luciferase); type: cell-based
T3 construct: expressed in transfected cells
Summary of the method: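 Readout is luminescence from a cAMP-responsive CRE-luc reporter, developed with LucLite for 30 min at room temperature. Cells were treated for 3 h at 37 °C in 10% FBS/DMEM buffered with 10 mM Hepes (pH 7.4).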

Sprague Dawley (SD) rats = assay: ASSAY (I) efficacy testing on appetite (food intake) using an ad libitum fed rat model; type: in vivo; settings: rat
Summary of the method: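 Individual food consumption was logged each hour up to 7 h and again at 24 h, occasionally 48 h, with Grubbs-test outliers removed. Each 200–250 g Sprague Dawley rat, free-feeding in its home cage under reversed lighting, received a single ip, po or sc dose of 0.01–3 mg/kg at lights-off, alongside a vehicle group.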

[3] = Table 5, selectivity, hCTR bind IC50 / hAmylin-R bind IC50
[4] = Table 5a, selectivity, hCTR bind IC50 / hAmylin-R bind IC50
[5] = Table 5b, selectivity, hCTR bind IC50 / hAmylin-R bind IC50
[6] = Table 5c, selectivity, hCTR bind IC50 / hAmylin-R bind IC50
[7] = Table 7, human binding selectivity, included for comparison
[8] = Table 7a (preferred compounds), human binding selectivity, included for comparison
[9] = ratio of human calcitonin receptor binding IC50 to human amylin receptor binding IC50
[10] = hCTR funct. EC50 divided by hAmylin-R funct. EC50
[11] = hCTR funct. EC50 over hAmylin-R funct. EC50
[12] = human functional selectivity: hCTR funct. EC50 / hAmylin-R funct. EC50

| SMILES | IC50 (rat calcitonin receptor) | Ratio hCT/hAmylin binding [1, 3] | Ratio hCT/hAmylin binding [1, 4] | Ratio hCT/hAmylin binding [1, 5] | Ratio hCT/hAmylin binding [1, 6] | Ratio hCT/hAmylin binding [1, 7] | Ratio hCT/hAmylin binding [1, 8] | Ratio hCT/hAmylin binding [1, 9] | Ratio hCT/hAmylin funct. [2, 10] | Ratio hCT/hAmylin funct. [2, 11] | Ratio hCT/hAmylin funct. [2, 12] | Food intake reduction 0-24 h 3 nmol/kg (%) (Sprague Dawley (SD) rats) | Food intake reduction 24-48 h 3 nmol/kg (%) (Sprague Dawley (SD) rats) | Food intake reduction 0-24 h 30 nmol/kg (%) (Sprague Dawley (SD) rats) | Food intake reduction 24-48 h 30 nmol/kg (%) (Sprague Dawley (SD) rats) |
| --- | --- | --- | --- | --- | --- | --- | --- | --- | --- | --- | --- | --- | --- | --- | --- |
| CC[C@H](C)[C@H](NC(=O)[C@H](C)NC(=O)CNC(=O)[C@H](Cc1ccccc1)NC(=O)[C@H](CC(N)=O)NC(=O)[C@@H]1CCCN1C(=O)[C@H](CO)NC(=O)[C@H](CO)NC(=O)[C@H](Cc1c[nH]cn1)NC(=O)[C@H](CCCNC(=N)N)NC(=O)[C@H](CC(C)C)NC(=O)[C@H](Cc1ccccc1)NC(=O)[C@H](CCC(=O)O)NC(=O)[C@H](C)NC(=O)[C@H](CC(C)C)NC(=O)[C@H](CCCNC(=N)N)NC(=O)[C@H](CCC(N)=O)NC(=O)[C@@H](NC(=O)[C@H](C)NC(=O)[C@@H]1CSSC[C@H](NC(=O)[C@@H](N)CCCCNC(=O)CC[C@H](NC(=O)CCCCCCCCCCCCCCCCCCC(=O)O)C(=O)O)C(=O)N[C@@H](CC(N)=O)C(=O)N[C@@H]([C@@H](C)O)C(=O)N[C@@H](C)C(=O)N[C@@H]([C@@H](C)O)C(=O)N1)[C@@H](C)O)C(=O)N1CCC[C@H]1C(=O)N[C@@H](CO)C(=O)N[C@@H](CO)C(=O)N[C@H](C(=O)N[C@@H](CC(N)=O)C(=O)N[C@H](C(=O)NCC(=O)N1CCC[C@H]1C(=O)N[C@@H](Cc1c[nH]cn1)C(=O)N[C@H](C(=O)N[C@@H](Cc1ccc(O)cc1)C(N)=O)[C@@H](C)O)C(C)C)[C@@H](C)O [Example 118] (H-K([γGlu-C20 diacid])CNTATCATQRLAEFLRHSSPNFGAIPSSTNVGPHTY-NH2; disulfide 2-7) | 5.43 nM | 21.2 | 21.2 | 21.2 | 21.2 | 21.2 | 21.2 | 21.2 | 14.4 | 14.4 | 14.4 | 43% | 1% | 77% | 30% |
| CC[C@H](C)[C@H](NC(=O)[C@H](C)NC(=O)CNC(=O)[C@H](Cc1ccccc1)NC(=O)[C@H](CC(N)=O)NC(=O)[C@@H]1CCCN1C(=O)[C@H](CO)NC(=O)[C@H](CO)NC(=O)[C@H](Cc1c[nH]cn1)NC(=O)[C@H](CCCNC(=N)N)NC(=O)[C@H](CC(C)C)NC(=O)[C@H](Cc1ccccc1)NC(=O)[C@H](CC(=O)O)NC(=O)[C@H](C)NC(=O)[C@H](CC(C)C)NC(=O)[C@H](CCCNC(=N)N)NC(=O)[C@H](CCC(N)=O)NC(=O)[C@@H](NC(=O)[C@H](C)NC(=O)[C@@H]1CSSC[C@H](NC(=O)[C@@H](N)CCCCNC(=O)CC[C@H](NC(=O)CC[C@H](NC(=O)CCCCCCCCCCCCCCCCCCC(=O)O)C(=O)O)C(=O)O)C(=O)N[C@@H](CC(N)=O)C(=O)N[C@@H]([C@@H](C)O)C(=O)N[C@@H](C)C(=O)N[C@@H]([C@@H](C)O)C(=O)N1)[C@@H](C)O)C(=O)N1CCC[C@H]1C(=O)N[C@@H](CO)C(=O)N[C@@H](CO)C(=O)N[C@H](C(=O)N[C@@H](CC(N)=O)C(=O)N[C@H](C(=O)NCC(=O)N1CCC[C@H]1C(=O)N[C@@H](CCC(=O)O)C(=O)N[C@H](C(=O)N[C@@H](Cc1ccc(O)cc1)C(N)=O)[C@@H](C)O)C(C)C)[C@@H](C)O [Example 122] (H-K([γGlu-γGlu-C20 diacid])CNTATCATQRLADFLRHSSPNFGAIPSSTNVGPETY-NH2; disulfide 2-7 (inferred); N-terminus assumed) | 31.9 nM | 49.8 | 49.8 | 49.8 | 49.8 | 49.8 | 49.8 | 49.8 | 5.3 | 5.3 | 5.3 | 50% | 50% |  |  |
| CC[C@H](C)[C@H](NC(=O)[C@H](C)NC(=O)CNC(=O)[C@H](Cc1ccccc1)NC(=O)[C@H](CC(N)=O)NC(=O)[C@@H]1CCCN1C(=O)[C@H](CO)NC(=O)[C@H](CO)NC(=O)[C@H](Cc1c[nH]cn1)NC(=O)[C@H](CCCNC(=N)N)NC(=O)[C@H](CC(C)C)NC(=O)[C@H](Cc1ccccc1)NC(=O)[C@H](CCC(=O)O)NC(=O)[C@H](C)NC(=O)[C@H](CC(C)C)NC(=O)[C@H](CCCNC(=N)N)NC(=O)[C@H](CCC(N)=O)NC(=O)[C@@H](NC(=O)[C@H](C)NC(=O)[C@@H]1CSSC[C@H](NC(=O)[C@@H](N)CCCCNC(=O)CC[C@H](NC(=O)CC[C@H](NC(=O)CCCCCCCCCCCCCCCCCCC(=O)O)C(=O)O)C(=O)O)C(=O)N[C@@H](CC(N)=O)C(=O)N[C@@H]([C@@H](C)O)C(=O)N[C@@H](C)C(=O)N[C@@H]([C@@H](C)O)C(=O)N1)[C@@H](C)O)C(=O)N1CCC[C@H]1C(=O)N[C@@H](CO)C(=O)N[C@@H](CO)C(=O)N[C@H](C(=O)N[C@@H](CC(N)=O)C(=O)N[C@H](C(=O)NCC(=O)N1CCC[C@H]1C(=O)N[C@@H](Cc1c[nH]cn1)C(=O)N[C@H](C(=O)N[C@@H](Cc1ccc(O)cc1)C(N)=O)[C@@H](C)O)C(C)C)[C@@H](C)O [Example 124] (H-K([γGlu-γGlu-C20 diacid])CNTATCATQRLAEFLRHSSPNFGAIPSSTNVGPHTY-NH2; disulfide 2-7 (inferred)) | 21 nM | 27.3 | 27.3 | 27.3 | 27.3 | 27.3 | 27.3 | 27.3 | 16.4 | 16.4 | 16.4 |  |  | 73% | 38% |

Reference: patent US9023789B2, “Amylin analogs and pharmaceutical compositions thereof” (Novo Nordisk A/S, priority 2012, dated 2015)
